Calls of active or inactive are those of the source.
Columns and labels:
[1] = THP-1 cell cytotoxicity, dose response, cytotoxicity control for Vif-APOBEC3G degradation inhibitor project, THP-1 cells (AID 1117359); format: functional; details: Human immunodeficiency virus 1, THP-1
[2] = inhibitors of Vif binding to APOBEC3G peptide, primary screen, biochemical, TR-FRET, GST-Vif 1-94, biotin-A3G peptide, dose response retest (AID 1117319); format: functional;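 note: TR-FRET signal of purified GST-Vif binding a biotinylated A3G peptide; inhibitors lower the FRET signal by blocking Vif and A3G binding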
[3] = growth suppression of PTEN-null colon cells, dose response, cell-based, HCT116 PTEN knockout (AID 1047); format: functional;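 note: HCT116 colon tumor cells with PTEN knocked out; cells exposed to compound for 60 hours before readout; potency for loss of cell viability measured by luminescence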
[4] = target: Eukaryotic translation initiation factor 4E (Mus musculus, UniProt P63073); assay: eIF4E–eIF4G protein interaction inhibitors, dose response, biochemical, TR-FRET (AID 855); format: functional;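 note: potency for disrupting eIF4E binding to eIF4GI seen as loss of FRET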
[5] = target: T1, Zinc finger protein mex-5 (Caenorhabditis elegans, UniProt Q9XUB2); assay: MEX-5/TCR-2 RNA interaction inhibitors, dose response, biochemical, C. elegans, fluorescence polarization (AID 1960)
T1 sequence (Q9XUB2 whole entry): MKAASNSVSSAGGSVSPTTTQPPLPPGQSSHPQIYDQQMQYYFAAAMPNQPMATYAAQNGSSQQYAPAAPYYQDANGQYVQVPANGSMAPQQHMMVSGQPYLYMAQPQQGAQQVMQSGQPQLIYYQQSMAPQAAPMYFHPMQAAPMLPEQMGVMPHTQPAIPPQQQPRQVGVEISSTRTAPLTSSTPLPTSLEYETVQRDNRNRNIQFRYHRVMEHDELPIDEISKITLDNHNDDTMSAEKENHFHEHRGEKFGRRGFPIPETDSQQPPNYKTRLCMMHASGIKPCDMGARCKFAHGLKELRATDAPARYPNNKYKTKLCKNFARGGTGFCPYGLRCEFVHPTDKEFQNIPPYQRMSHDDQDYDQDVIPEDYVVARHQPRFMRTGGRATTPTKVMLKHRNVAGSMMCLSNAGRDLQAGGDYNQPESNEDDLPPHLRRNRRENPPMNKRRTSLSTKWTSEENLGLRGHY

Protein RecA = target: T2, Protein RecA (Mycobacterium tuberculosis, UniProt P9WHJ3); assay: Fluorescence Cell-Free Homogeneous Dose Retest to Identify Inhibitors of RecA-Intein Splicing Activity. [Related pubchem assays (depositor defined):AID2097, AID2223, AID489010, AID492950]; format: functional
T2 sequence (P9WHJ3 whole entry): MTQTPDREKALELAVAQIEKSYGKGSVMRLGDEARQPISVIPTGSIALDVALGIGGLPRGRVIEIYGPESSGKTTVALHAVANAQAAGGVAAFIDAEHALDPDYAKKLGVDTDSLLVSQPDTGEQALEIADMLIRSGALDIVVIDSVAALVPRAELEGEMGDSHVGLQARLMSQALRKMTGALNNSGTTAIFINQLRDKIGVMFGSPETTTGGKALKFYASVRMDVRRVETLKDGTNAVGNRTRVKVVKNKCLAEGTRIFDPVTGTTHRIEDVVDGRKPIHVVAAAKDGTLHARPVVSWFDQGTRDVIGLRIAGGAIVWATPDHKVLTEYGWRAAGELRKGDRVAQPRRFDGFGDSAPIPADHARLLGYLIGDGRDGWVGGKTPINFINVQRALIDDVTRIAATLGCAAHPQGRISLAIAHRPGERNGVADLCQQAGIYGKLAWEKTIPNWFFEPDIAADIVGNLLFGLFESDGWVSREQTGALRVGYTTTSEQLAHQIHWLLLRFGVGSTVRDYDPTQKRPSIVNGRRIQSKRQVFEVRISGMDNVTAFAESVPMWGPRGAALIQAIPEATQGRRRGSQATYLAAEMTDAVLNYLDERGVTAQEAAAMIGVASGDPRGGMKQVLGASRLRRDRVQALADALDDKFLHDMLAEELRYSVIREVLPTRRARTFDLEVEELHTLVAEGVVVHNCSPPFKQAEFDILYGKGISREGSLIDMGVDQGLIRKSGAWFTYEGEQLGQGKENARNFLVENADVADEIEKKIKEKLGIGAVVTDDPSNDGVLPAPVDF

[6] = target: T3, Replicative DNA helicase DnaB (Mycobacterium tuberculosis, UniProt P9WMR3); assay: DnaB intein splicing inhibitors, dose response, biochemical, cell-free fluorescence (AID 449749); format: functional
T3 sequence (P9WMR3 whole entry): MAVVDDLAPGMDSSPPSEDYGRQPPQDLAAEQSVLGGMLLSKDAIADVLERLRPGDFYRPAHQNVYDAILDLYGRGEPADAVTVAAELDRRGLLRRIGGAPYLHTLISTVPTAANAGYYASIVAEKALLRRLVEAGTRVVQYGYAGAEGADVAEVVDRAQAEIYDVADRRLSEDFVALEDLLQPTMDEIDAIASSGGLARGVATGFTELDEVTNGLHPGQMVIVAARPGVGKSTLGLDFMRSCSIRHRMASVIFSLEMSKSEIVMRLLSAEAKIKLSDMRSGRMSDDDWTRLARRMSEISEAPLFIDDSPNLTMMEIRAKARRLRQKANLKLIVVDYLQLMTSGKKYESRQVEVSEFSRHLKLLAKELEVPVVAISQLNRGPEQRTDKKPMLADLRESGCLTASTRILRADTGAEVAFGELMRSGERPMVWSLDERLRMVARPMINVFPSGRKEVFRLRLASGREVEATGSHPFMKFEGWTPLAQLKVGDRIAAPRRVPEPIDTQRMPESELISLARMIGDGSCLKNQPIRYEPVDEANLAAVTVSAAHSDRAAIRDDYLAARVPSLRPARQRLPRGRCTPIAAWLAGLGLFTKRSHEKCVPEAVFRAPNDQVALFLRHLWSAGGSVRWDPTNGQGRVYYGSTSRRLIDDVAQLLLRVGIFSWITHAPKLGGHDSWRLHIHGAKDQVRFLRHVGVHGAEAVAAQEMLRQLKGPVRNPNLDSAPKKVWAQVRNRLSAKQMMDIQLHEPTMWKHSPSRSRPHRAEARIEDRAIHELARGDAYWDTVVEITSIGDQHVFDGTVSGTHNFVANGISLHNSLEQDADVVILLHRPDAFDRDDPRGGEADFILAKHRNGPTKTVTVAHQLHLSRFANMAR

[7] = growth suppression of beta-catenin-knockout colon cells, dose response, cell-based, HCT116, human colon tumor (AID 1045); format: functional;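 note: HCT116 colon tumor cells with beta catenin knocked out; cells exposed to compound for 60 hours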
[8] = target: T4, RNA-binding protein pos-1 (Caenorhabditis elegans, UniProt G5EF15); assay: inhibitors of POS-1/mex-3 RNA binding, dose response, biochemical, fluorescence polarization (AID 1964);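 note: purified POS-1 fused to maltose binding protein made in E. coli; potency of compounds blocking POS-1 binding to fluorescent RNA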
T4 sequence (G5EF15 whole entry): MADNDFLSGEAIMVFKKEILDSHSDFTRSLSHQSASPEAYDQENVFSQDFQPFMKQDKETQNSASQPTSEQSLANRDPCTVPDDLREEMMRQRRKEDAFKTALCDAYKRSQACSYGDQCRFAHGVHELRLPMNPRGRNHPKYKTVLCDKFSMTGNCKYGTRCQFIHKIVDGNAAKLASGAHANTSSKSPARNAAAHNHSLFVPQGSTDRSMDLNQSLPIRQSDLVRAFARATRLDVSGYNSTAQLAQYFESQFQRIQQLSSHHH

Estrogen receptor beta = Estrogen receptor beta (Homo sapiens, UniProt Q92731); assay: ERβ–SRC-3 coactivator interaction inhibitors, confirmation, orthogonal assay, biochemical, ELISA, streptavidin-HRP readout (AID 1060)
[9] = target: Aryl hydrocarbon receptor (Homo sapiens, UniProt P35869); assay: Luminescence-based cell-based high throughput dose response assay for activators of the Aryl Hydrocarbon Receptor (AHR). [Related pubchem assays: 2796 (Primary screen (AHR activators in singlicate)), 2845 (Confirmation screen (AHR activators in triplicate)), 434939 (Counterscreen (PXR activators in triplicate)), 2804 (Summary (AHR activators))]; format: ADME
Ephrin type-A receptor 4 = Ephrin type-A receptor 4 (Mus musculus, UniProt Q03137); assay: inhibitors of EphA4 binding to KYL peptide, primary screen, biochemical, colorimetric, mouse EphA4 (AID 689); format: functional
CHO = assay: cytotoxicity in TLR9-MyD88 CHO cells, dose response, cytotoxicity control for TLR9-MyD88 binding inhibitor project, cell-based, luminescence (AID 588339); format: functional, hamster; details: Cricetulus griseus;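 note: CHO cells stably coexpressing TLR9 and MyD88 fusions from primary screen; compound exposure lasted 48 hours before viability readout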
Beta Lactamase = Beta Lactamase (Pseudomonas aeruginosa, UniProt Q932Y6); assay: beta-lactamase reporter inhibitor potency, dose response, artefact control for TLR9-MyD88 binding inhibitor project, BLA reporter cells, FRET fluorescence (AID 588341); format: cell-based;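 note: cell based assay in CHO-K1 cells stably expressing beta-lactamase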
Cytochrome P450 2C19 = Cytochrome P450 2C19 (Homo sapiens, UniProt P33261); assay: qHTS Assay for Inhibitors and Substrates of Cytochrome P450 2C19. [Related pubchem assays: 410 ]; format: ADME; details: read-out: Potency
Sequence of Cytochrome P450 2C19 (P33261 whole entry): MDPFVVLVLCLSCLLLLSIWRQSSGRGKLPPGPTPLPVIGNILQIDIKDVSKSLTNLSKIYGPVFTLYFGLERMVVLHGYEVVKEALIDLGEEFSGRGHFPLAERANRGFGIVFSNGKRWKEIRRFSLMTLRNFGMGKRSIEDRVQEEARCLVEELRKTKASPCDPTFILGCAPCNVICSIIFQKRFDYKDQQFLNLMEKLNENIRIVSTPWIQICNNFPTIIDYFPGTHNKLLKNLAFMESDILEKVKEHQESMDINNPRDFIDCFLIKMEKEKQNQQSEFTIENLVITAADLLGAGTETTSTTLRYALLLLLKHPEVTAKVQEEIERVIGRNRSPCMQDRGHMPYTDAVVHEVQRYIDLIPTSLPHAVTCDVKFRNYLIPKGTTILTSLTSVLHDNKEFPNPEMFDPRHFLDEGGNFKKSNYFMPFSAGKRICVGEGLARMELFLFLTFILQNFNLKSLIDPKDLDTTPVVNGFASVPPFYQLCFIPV

Sequence of Ephrin type-A receptor 4 (Q03137 whole entry, the tested form may be a part): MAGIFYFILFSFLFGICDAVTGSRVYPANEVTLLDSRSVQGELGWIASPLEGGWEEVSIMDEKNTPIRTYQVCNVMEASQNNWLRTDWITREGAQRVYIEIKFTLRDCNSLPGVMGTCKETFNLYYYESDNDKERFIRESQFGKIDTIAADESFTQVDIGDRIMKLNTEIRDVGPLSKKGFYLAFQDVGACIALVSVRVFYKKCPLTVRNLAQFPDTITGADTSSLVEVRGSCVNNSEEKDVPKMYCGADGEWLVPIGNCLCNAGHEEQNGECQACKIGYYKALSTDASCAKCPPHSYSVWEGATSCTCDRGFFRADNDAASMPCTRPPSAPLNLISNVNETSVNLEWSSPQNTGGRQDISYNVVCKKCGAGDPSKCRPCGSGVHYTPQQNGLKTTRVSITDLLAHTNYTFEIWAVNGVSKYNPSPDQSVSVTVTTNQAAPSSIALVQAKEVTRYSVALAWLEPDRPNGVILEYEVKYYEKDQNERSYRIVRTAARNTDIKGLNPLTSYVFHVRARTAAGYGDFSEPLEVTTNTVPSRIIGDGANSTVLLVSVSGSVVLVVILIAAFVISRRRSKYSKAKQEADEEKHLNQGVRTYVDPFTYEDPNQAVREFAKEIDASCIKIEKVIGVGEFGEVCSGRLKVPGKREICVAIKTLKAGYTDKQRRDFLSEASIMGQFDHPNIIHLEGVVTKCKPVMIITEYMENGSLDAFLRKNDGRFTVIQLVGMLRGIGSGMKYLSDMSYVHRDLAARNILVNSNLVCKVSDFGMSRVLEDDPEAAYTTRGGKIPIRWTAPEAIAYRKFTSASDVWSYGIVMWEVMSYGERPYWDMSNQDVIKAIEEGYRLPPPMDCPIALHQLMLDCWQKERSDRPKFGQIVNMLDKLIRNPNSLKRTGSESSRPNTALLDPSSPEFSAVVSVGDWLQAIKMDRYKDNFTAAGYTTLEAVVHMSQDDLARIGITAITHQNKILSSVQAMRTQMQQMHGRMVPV
Sequence of Beta Lactamase (Q932Y6 whole entry): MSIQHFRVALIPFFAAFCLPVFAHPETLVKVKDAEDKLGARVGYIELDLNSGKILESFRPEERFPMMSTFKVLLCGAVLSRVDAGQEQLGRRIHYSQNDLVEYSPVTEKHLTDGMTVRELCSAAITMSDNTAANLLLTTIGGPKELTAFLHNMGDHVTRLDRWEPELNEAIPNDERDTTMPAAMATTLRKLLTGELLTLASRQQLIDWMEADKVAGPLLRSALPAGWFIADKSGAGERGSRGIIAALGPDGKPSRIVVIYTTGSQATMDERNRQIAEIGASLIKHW
Sequence of Estrogen receptor beta (Q92731 whole entry): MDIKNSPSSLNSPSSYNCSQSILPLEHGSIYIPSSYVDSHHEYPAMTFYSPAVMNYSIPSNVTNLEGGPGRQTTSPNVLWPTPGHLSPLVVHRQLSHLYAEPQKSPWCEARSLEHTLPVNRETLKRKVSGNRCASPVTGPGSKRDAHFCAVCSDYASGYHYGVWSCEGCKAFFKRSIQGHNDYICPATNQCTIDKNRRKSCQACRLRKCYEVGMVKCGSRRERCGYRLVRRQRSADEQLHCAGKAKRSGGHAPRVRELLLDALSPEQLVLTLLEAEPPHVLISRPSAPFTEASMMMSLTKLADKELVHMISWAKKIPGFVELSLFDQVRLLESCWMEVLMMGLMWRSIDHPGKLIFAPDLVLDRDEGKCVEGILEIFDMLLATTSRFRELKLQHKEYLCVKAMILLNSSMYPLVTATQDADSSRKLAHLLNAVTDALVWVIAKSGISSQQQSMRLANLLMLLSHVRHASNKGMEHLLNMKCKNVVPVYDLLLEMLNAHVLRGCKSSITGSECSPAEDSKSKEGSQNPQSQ
Sequence of Eukaryotic translation initiation factor 4E (P63073 whole entry): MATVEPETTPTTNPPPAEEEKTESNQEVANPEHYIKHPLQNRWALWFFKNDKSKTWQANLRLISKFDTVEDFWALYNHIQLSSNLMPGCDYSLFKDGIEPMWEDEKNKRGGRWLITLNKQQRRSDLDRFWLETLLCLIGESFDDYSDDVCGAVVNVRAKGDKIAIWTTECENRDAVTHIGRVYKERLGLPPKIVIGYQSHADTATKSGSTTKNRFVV
Sequence of Aryl hydrocarbon receptor (P35869 whole entry): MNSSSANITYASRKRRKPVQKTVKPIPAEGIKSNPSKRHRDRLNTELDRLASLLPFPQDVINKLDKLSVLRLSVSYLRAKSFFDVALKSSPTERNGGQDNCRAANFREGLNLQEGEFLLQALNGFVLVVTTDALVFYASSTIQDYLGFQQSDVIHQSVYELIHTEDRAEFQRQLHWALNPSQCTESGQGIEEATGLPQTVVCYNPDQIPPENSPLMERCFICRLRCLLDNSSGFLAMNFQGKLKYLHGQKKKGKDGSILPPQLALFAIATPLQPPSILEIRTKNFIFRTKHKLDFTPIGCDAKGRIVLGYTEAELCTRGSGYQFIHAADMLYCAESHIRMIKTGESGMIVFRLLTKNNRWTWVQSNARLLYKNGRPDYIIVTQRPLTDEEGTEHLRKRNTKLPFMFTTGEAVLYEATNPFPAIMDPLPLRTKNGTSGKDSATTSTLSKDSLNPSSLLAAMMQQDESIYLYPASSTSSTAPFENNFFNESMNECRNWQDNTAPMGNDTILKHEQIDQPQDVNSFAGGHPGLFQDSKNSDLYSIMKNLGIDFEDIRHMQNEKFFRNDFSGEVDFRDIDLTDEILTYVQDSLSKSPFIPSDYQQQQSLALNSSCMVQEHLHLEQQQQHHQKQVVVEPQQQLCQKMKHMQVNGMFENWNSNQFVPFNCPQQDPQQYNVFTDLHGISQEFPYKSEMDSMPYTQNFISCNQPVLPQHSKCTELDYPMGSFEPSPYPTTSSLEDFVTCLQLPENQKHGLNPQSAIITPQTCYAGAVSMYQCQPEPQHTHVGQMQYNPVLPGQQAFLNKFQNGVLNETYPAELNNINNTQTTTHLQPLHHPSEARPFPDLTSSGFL

Cc1cc(C)cc(NC2=CC(=O)CC(c3ccco3)C2)c1 (stereo not drawn)
CC50 [1]: 25.1 µM (active)
IC50 [2]: > 60.7 µM (active)

CN1CCN(C2=C(Cl)C(=O)C(c3cnc(N4CCCCC4)s3)=C(Cl)C2=O)CC1
EC50 [3]: 10.1 µM (active)
IC50 [4]: 19.2 µM (inactive)
EC50 [5]: 4.18 µM (active)
EC50 (Protein RecA): 1.29 µM (active)
AC50 [6]: > 380 µM (inactive)
EC50 [7]: 8.57 µM (active)
EC50 [8]: 5.11 µM (active)
IC50 (Estrogen receptor beta): 0.63 µM (not active)

O=S(=O)(NNc1ncc(C(F)(F)F)cc1Cl)c1ccc(F)cc1F
EC50 [9]: 3.38 µM (active)

CN(C)c1ccc(/C=C/C(=O)c2cccc(Br)c2)cc1
IC50 (Ephrin type-A receptor 4): > 100 µM (not active)
EC50 [5]: > 300 µM (inconclusive)
IC50 (CHO): > 49.7 µM (inactive)
IC50 (Beta Lactamase): 5.6 µM (active)
EC50 [8]: > 300 µM (not active)

COc1cc2c(cc1OC)-c1c(O)c(OC)cc3c1[C@@H](C2)N(C)CC3
AC50 (Cytochrome P450 2C19): 25.1 µM (inconclusive)

Cc1ccc(CNC(=O)CN2CCC(C(N)=O)CC2)cc1
IC50 (Ephrin type-A receptor 4): > 100 µM (not active)

From ChEMBL document CHEMBL1201862, “PubChem BioAssay data set” (2004)
